Assay results: patent US12478690B2, “Methods and systems for controlled release of drug cargo via ATP-responsive liposomes” (UNIVERSITY OF TENNESSEE RESEARCH FOUNDATION, priority 2021, dated 2025)

Assay: Diffusion ordered spectroscopy (DOSY) of the lipid switch before and after ATP
Assay type: physicochemical
Settings: DMSO containing 8% D2O; substance alone
Description: Diffusion ordered spectroscopy (DOSY) was performed on 1a lipid switch molecules in de-DMSO containing 8% D2O before and after adding ATP. A decrease in diffusion coefficient was observed. In at least one experiment, the diffusion coefficient decreased from (1.0793±0.043)×10^−6 cm^2/s for 1a lipid switch molecule and (1.142±0.018)×10^−6 cm^2/s for ATP to (0.987±0.098)×10^−6 cm^2/s for 1a+ATP. The diffusion coefficient indicates an increase in the hydrodynamic radius per lipid molecule upon binding.

For `Nc1ncnc2c1ncn2[C@@H]1O[C@H](COP(=O)(O)OP(=O)(O)OP(=O)(O)O)[C@@H](O)[C@H]1O` [ATP, adenosine triphosphate], the Diffusion coefficient was 1.142±0.018 ×10^−6 cm^2/s.
